From PMC8384680 (Journal of pharmaceutical and biomedical analysis, 2021)
Values after ≈ are worked out from the molar mass of the structure shown.

Experiments:
[1] = Stability of primary stock solution; assay type: physicochemical; conditions: stored at −80°C for 88-days, R.S.D ≤ 1.16%
[2] = Stability of JQ1 in microdialysate; assay type: physicochemical
BRD4(1) = conditions: cell-free assays, ref [10], cited from earlier work
BRD4(2) = conditions: cell-free assays, ref [10], cited from earlier work

In the case of `Cc1sc2c(c1C)C(c1ccc(Cl)cc1)=N[C@@H](CC(=O)OC(C)(C)C)c1nnc(C)n1-2` [JQ1], the “Stability of primary stock solution (in words)” value [1] is reported as “stable”, the “% Mean deviation” value ([2]; Bench-top 4C: 24h at 4°C, nominal 1.5 ng/mL) is reported as 5.96% and the “% Mean deviation” value ([2]; Bench-top RT: 24h at room temperature, nominal 1.5 ng/mL) is reported as 3.23%. For the same molecule, the “% Mean deviation” value ([2]; Bench-top RT: 24h at room temperature, nominal 400 ng/mL) was 5.26%, the “% Mean deviation” value ([2]; Long-term: 21 days at −80°C, nominal 1.5 ng/mL) was 12.83% and the “% Mean deviation” value ([2]; Long-term: 21 days at −80°C, nominal 400 ng/mL) was 5.62%. The “% Mean deviation” value ([2]; Process: 48 h in auto sampler at 4°C, nominal 1.5 ng/mL) was 0.46%, the “% Mean deviation” value ([2]; Process: 48 h in auto sampler at 4°C, nominal 400 ng/mL) was 1.39% and the “Autosampler (post-extractive) stability (in words)” value ([2]; extracted quality control samples, microdialysate, autosampler 48 h) was “stable”. For the same molecule, the “Freeze-thaw stability (in words)” value ([2]; microdialysate, three freeze-thaw cycles) was “no-stability related issues”, the “Short-term stability (in words)” value ([2]; spiked microdialysate, 24 h at 4°C and room temperature) was “stable” and the “Long-term stability (in words)” value ([2]; spiked microdialysate, −80°C for 21 days) was “confirmed”. For the same molecule, the “% Mean deviation” value ([2]; three freeze-thaw cycles, nominal 1.5 ng/mL) was 11.77%, the “IC50 BRD4(1)” value (BRD4(1)) was 35.2 ng/mL (≈ 0.077 µM) and the IC50 (BRD4(1); read-out: IC50 BRD4(1)) was 77 nM. The “IC50 BRD4(2)” value (BRD4(2)) was 15.1 ng/mL (≈ 0.033 µM) and the IC50 (BRD4(2); read-out: IC50 BRD4(2)) was 33 nM.
